We go through five compounds from the supplement of paper PMC10307832.

The test system of one test is NCI-H1793. Briefly: relative viability (nuclei count vs DMSO), 5 days (fraction); higher = more cells survive. To be noted: first compound 20 µM. The essentials: (§1)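 Lung cancer cell lines were seeded in 1536-well plates and dosed by pin tool the next day, with either a single drug or a fixed anchor-drug dose combined with five library-drug doses (not always all listed) spaced in √10 steps. Five days later, one step fixed the cells and stained their nuclei (final 0.05% Triton X-100, 1% formaldehyde, 1 ug/ml Hoechst), and nuclei were counted on 4× images. Relative viability is the nuclei count in treated wells divided by the count in vehicle wells, and each value is the median of duplicate plates.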
Regarding `COCC1(CO)C(=O)C2CCN1CC2` (stereo not given) [PRIMA-1MET] + CC(=O)Nc1cccc(-n2c(=O)n(C3CC3)c(=O)c3c(Nc4ccc(I)cc4F)n(C)c(=O)c(C)c32)c1 [Trametinib] (partner 0.02 µM), the relative viability worked out at 0.517.
On the same count and under the same terms, to `COCC1(CO)C(=O)C2CCN1CC2` (stereo not given) [PRIMA-1MET] + Nc1ncn([C@H]2C[C@H](O)[C@@H](CO)O2)c(=O)n1 [Decitabine] (partner 2 µM) belongs 0.424; to `COCC1(CO)C(=O)C2CCN1CC2` (stereo not given) [PRIMA-1MET] + O=C(c1cc(Cc2n[nH]c(=O)c3ccccc23)ccc1F)N1CCN(C(=O)C2CC2)CC1 [Olaparib] (partner 8 µM), 0.539.

For a further test, the system named is NCI-H460. Described as above. To be noted: first compound 0.2 µM. The method, boiled down: as §1
With `COCC1(CO)C(=O)C2CCN1CC2` (stereo not given) [PRIMA-1MET] + CC(C)C[C@H](NC(=O)[C@H](Cc1ccccc1)NC(=O)c1cnccn1)B(O)O [Bortezomib] (partner 0.002 µM), the relative viability is 1.38.
Still for that read-out and setting: to `COCC1(CO)C(=O)C2CCN1CC2` (stereo not given) [PRIMA-1MET] + CC(=O)Nc1cccc(-n2c(=O)n(C3CC3)c(=O)c3c(Nc4ccc(I)cc4F)n(C)c(=O)c(C)c32)c1 [Trametinib] (partner 0.02 µM) belongs 0.0362; to `COCC1(CO)C(=O)C2CCN1CC2` (stereo not given) [PRIMA-1MET] + Nc1ncn([C@H]2C[C@H](O)[C@@H](CO)O2)c(=O)n1 [Decitabine] (partner 2 µM), 0.595; to `COCC1(CO)C(=O)C2CCN1CC2` (stereo not given) [PRIMA-1MET] + O=C(c1cc(Cc2n[nH]c(=O)c3ccccc23)ccc1F)N1CCN(C(=O)C2CC2)CC1 [Olaparib] (partner 8 µM), 0.532.
Compound `COCC1(CO)C(=O)C2CCN1CC2` (stereo not given) [PRIMA-1MET] + C[C@@H](Oc1cc(-c2cnn(C3CCNCC3)c2)cnc1N)c1c(Cl)ccc(F)c1Cl [Crizotinib] (partner 1 µM) came in with a relative viability of 1.45.

The same test, now with this note: first compound 0.6325 µM.
Compound `COCC1(CO)C(=O)C2CCN1CC2` (stereo not given) [PRIMA-1MET] + CC(C)C[C@H](NC(=O)[C@H](Cc1ccccc1)NC(=O)c1cnccn1)B(O)O [Bortezomib] (partner 0.002 µM) came in with a relative viability of 0.967.
Turning to `COCC1(CO)C(=O)C2CCN1CC2` (stereo not given) [PRIMA-1MET] + CC(=O)Nc1cccc(-n2c(=O)n(C3CC3)c(=O)c3c(Nc4ccc(I)cc4F)n(C)c(=O)c(C)c32)c1 [Trametinib] (partner 0.02 µM), the relative viability is 0.0885.
In turn, `COCC1(CO)C(=O)C2CCN1CC2` (stereo not given) [PRIMA-1MET] + Nc1ncn([C@H]2C[C@H](O)[C@@H](CO)O2)c(=O)n1 [Decitabine] (partner 2 µM) displayed a relative viability of 0.136.
The same measure, in the same setting: to `COCC1(CO)C(=O)C2CCN1CC2` (stereo not given) [PRIMA-1MET] + O=C(c1cc(Cc2n[nH]c(=O)c3ccccc23)ccc1F)N1CCN(C(=O)C2CC2)CC1 [Olaparib] (partner 8 µM) belongs 0.337; to `COCC1(CO)C(=O)C2CCN1CC2` (stereo not given) [PRIMA-1MET] + C[C@@H](Oc1cc(-c2cnn(C3CCNCC3)c2)cnc1N)c1c(Cl)ccc(F)c1Cl [Crizotinib] (partner 1 µM), 0.579.

The same test, now with this note: first compound 2 µM.
The compound `COCC1(CO)C(=O)C2CCN1CC2` (stereo not given) [PRIMA-1MET] + CC(C)C[C@H](NC(=O)[C@H](Cc1ccccc1)NC(=O)c1cnccn1)B(O)O [Bortezomib] (partner 0.002 µM) came in with a relative viability of 1.05.
`COCC1(CO)C(=O)C2CCN1CC2` (stereo not given) [PRIMA-1MET] + CC(=O)Nc1cccc(-n2c(=O)n(C3CC3)c(=O)c3c(Nc4ccc(I)cc4F)n(C)c(=O)c(C)c32)c1 [Trametinib] (partner 0.02 µM) had a relative viability of 0.0744.
The same measure, in the same setting: to `COCC1(CO)C(=O)C2CCN1CC2` (stereo not given) [PRIMA-1MET] + Nc1ncn([C@H]2C[C@H](O)[C@@H](CO)O2)c(=O)n1 [Decitabine] (partner 2 µM) belongs 0.455; to `COCC1(CO)C(=O)C2CCN1CC2` (stereo not given) [PRIMA-1MET] + O=C(c1cc(Cc2n[nH]c(=O)c3ccccc23)ccc1F)N1CCN(C(=O)C2CC2)CC1 [Olaparib] (partner 8 µM), 0.384.
Same read-out and setting: then `COCC1(CO)C(=O)C2CCN1CC2` (stereo not given) [PRIMA-1MET] + C[C@@H](Oc1cc(-c2cnn(C3CCNCC3)c2)cnc1N)c1c(Cl)ccc(F)c1Cl [Crizotinib] (partner 1 µM), with 0.898.

Still in this test, the particulars now being: first compound 6.325 µM.
`COCC1(CO)C(=O)C2CCN1CC2` (stereo not given) [PRIMA-1MET] + CC(C)C[C@H](NC(=O)[C@H](Cc1ccccc1)NC(=O)c1cnccn1)B(O)O [Bortezomib] (partner 0.002 µM): the relative viability amounted to 0.581.
The same measure, in the same setting: to `COCC1(CO)C(=O)C2CCN1CC2` (stereo not given) [PRIMA-1MET] + CC(=O)Nc1cccc(-n2c(=O)n(C3CC3)c(=O)c3c(Nc4ccc(I)cc4F)n(C)c(=O)c(C)c32)c1 [Trametinib] (partner 0.02 µM) belongs 0.136; to `COCC1(CO)C(=O)C2CCN1CC2` (stereo not given) [PRIMA-1MET] + Nc1ncn([C@H]2C[C@H](O)[C@@H](CO)O2)c(=O)n1 [Decitabine] (partner 2 µM), 0.513; to `COCC1(CO)C(=O)C2CCN1CC2` (stereo not given) [PRIMA-1MET] + O=C(c1cc(Cc2n[nH]c(=O)c3ccccc23)ccc1F)N1CCN(C(=O)C2CC2)CC1 [Olaparib] (partner 8 µM), 0.451.
Same read-out and setting: to `COCC1(CO)C(=O)C2CCN1CC2` (stereo not given) [PRIMA-1MET] + C[C@@H](Oc1cc(-c2cnn(C3CCNCC3)c2)cnc1N)c1c(Cl)ccc(F)c1Cl [Crizotinib] (partner 1 µM) belongs 0.0132.

The same test, now with this note: first compound 20 µM.
Take `COCC1(CO)C(=O)C2CCN1CC2` (stereo not given) [PRIMA-1MET] + CC(C)C[C@H](NC(=O)[C@H](Cc1ccccc1)NC(=O)c1cnccn1)B(O)O [Bortezomib] (partner 0.002 µM): the relative viability turned out to be 0.0059.
Still for that read-out and setting: to `COCC1(CO)C(=O)C2CCN1CC2` (stereo not given) [PRIMA-1MET] + CC(=O)Nc1cccc(-n2c(=O)n(C3CC3)c(=O)c3c(Nc4ccc(I)cc4F)n(C)c(=O)c(C)c32)c1 [Trametinib] (partner 0.02 µM) belongs 0.0091.
On the same count and under the same terms, to `COCC1(CO)C(=O)C2CCN1CC2` (stereo not given) [PRIMA-1MET] + Nc1ncn([C@H]2C[C@H](O)[C@@H](CO)O2)c(=O)n1 [Decitabine] (partner 2 µM) belongs 0.0203.
On the same count and under the same terms, to `COCC1(CO)C(=O)C2CCN1CC2` (stereo not given) [PRIMA-1MET] + O=C(c1cc(Cc2n[nH]c(=O)c3ccccc23)ccc1F)N1CCN(C(=O)C2CC2)CC1 [Olaparib] (partner 8 µM) belongs 0.162; to `COCC1(CO)C(=O)C2CCN1CC2` (stereo not given) [PRIMA-1MET] + C[C@@H](Oc1cc(-c2cnn(C3CCNCC3)c2)cnc1N)c1c(Cl)ccc(F)c1Cl [Crizotinib] (partner 1 µM), 0.0052.

For the next test, the system named is NCI-H1666. The test is described as above. The following applies: first compound 0.2 µM. The essentials: as §1
The compound `COCC1(CO)C(=O)C2CCN1CC2` (stereo not given) [PRIMA-1MET] + CC(C)C[C@H](NC(=O)[C@H](Cc1ccccc1)NC(=O)c1cnccn1)B(O)O [Bortezomib] (partner 0.002 µM) had a relative viability of 0.836.
Still for that read-out and setting: to `COCC1(CO)C(=O)C2CCN1CC2` (stereo not given) [PRIMA-1MET] + CC(=O)Nc1cccc(-n2c(=O)n(C3CC3)c(=O)c3c(Nc4ccc(I)cc4F)n(C)c(=O)c(C)c32)c1 [Trametinib] (partner 0.02 µM) belongs 0.886.
